≈ marks a conversion by molar mass, not a printed value.
How the values were obtained:
[1] = Artificial membrane permeability assay; type: in vitro ADME; settings: PAMPA, read-out: Permeability Pe
Method: The assay was performed in an automated fashion on 96-well microplates. The permeation of drugs was measured using a “sandwich” construction: A filter-plate was coated with phospholipids (membrane) and placed into a donor compartment containing a compound/buffer solution. Finally, the top of filter-plate was filled with buffer solution (acceptor). Donor concentration was measured at t-start (reference) and compared with the donor and acceptor concentration after a certain time (t-end) to calculate the extent of passage of the compound through the membrane. The main readout of the assay was the permeability value Pe expressed in 10^–6 * cm/s. Secondary readouts determined were the amount of compound in the donor and acceptor compartments as well as the retention in the membrane. Depending on the permeation rate and the membrane retention the compounds were classified as low (Pe < 0.2 and membrane < 20%) or medium and high (Pe ≥ 0.2 or Pe < 0.2 and membrane ≥ 20%). Each sample was measured in triplicate and a standard deviation was determined for the permeation constant Pe.

[2] = Lipophilicity (LogD, octanol/buffer); type: physicochemical; settings: 1-octanol / 25 mM phosphate buffer; pH 7.4, octanol/25 mM phosphate buffer
Method: The experiment started with the accurate coating of the hydrophobic layer (0.45 µm PVDF membranes), which was fixed on the bottom of each DIFI©-tube (Weidmann Medical Technology AG, Rapperswil, Switzerland). The coated membranes were then connected to a 96-well plate which has been prefilled with exactly 150 µl of the selected aqueous buffer solution (25 mM phosphate buffer, pH 7.4). The buffer solution contains already the compound of interest with a maximum starting concentration of 85 µM. To expand the measurement range down to logD = −0.5 and up to logD = +4, it is necessary to carry out the procedure at two different octanol/water ratios: One with an excess of octanol for hydrophilic compounds (logD < 1) and one with a low volume of octanol for the lipophilic compounds (logD > 1). Therefore, parts of the DIFI©-tubes were filled with 15 µl 1-octanol and another part with 1 µl 1-octanol. The resulting sandwich guarantees that the membrane was completely dipped in the buffer solution. The plate was then sealed and shaken for 12 h at room temperature (23°C). During this time, the substance is distributed between the layer, the octanol, and the buffer solution. After having reached a distribution equilibrium, the DIFI©-tubes were easily disassembled from the top of the 96-well plate, so that the remaining sample concentration in the aqueous phase could be analyzed by LC/MS.

[3] = Glutathione addition screening; type: in vitro ADME; settings: human liver microsomes + NADPH + GSH
Method: All sample handling was performed based on a 96-well plate format using an automated pipetting system. The test compounds, positive controls (diclofenac, troglitazone, nefazodone, 4-[[1-(4-fluorophenyl)-2-methyl-1H-imidazol-4-yl]ethynyl]-2-methylpyridine) and solvent control (DMSO) were incubated with human liver microsomes supplemented with NADPH and reduced GSH. Stable GSH conjugates whose production can be assumed to be the result of chemically reactive metabolites were detected using a quadrupole time of flight mass spectrometer run in untargeted full scan accurate mass MSE mode (Waters Xevo G1 QTOFMSE; Waters GmbH, Eschborn, Germany). This generic GSH adduct detection method and the assay workflow are taking advantage of the specific fragmentation behavior of the peptide moiety upon collision induced dissociation of GSH adducts and so are largely independent of the conjugate (“X”) itself.

[4] = In vitro microsomal stability, rat; type: in vitro ADME; settings: rat microsomes, 1 µM; value of 10 = low clearance, essentially below detection limit
Method: (§1) Incubations of a test compound at a concentration of 1 µM with microsomes (0.5 mg/ml) from the appropriate species (human, mouse, or rat) plus cofactor NADPH were performed in 96-well plates at 37°C on a TECAN automated liquid handling system (Tecan Group Ltd., Männedorf, Switzerland). After pre-incubation of the test compound with the microsomes for 10 min, the enzymatic reaction was started by the addition of cofactors. Aliquots of the incubations are removed at 1, 3, 6, 9, 15, 25, 35, and 45 min and are then quenched with 1:3 (v/v) acetonitrile containing internal standards. Samples were then cooled and centrifuged before analysis of the supernatant by LC-MS/MS. Logarithmic Peak area ratios (test compound peak area/internal standard peak area) were plotted against incubation time and a linear fit made to the data with emphasis upon the initial rate of compound disappearance. The slope of the fit was then used to calculate the intrinsic clearance: Clint (µL/min/mg protein) = −slope (min-1) * 1,000/[protein concentration (mg/ml)].

HT-solubility assay = type: physicochemical; settings: aqueous buffer, thermodynamic from solid; phosphate buffer pH 6.5
Method: This assay was performed on a TECAN station starting from 10 mM DMSO stock solutions of the test compounds. Two aliquots of the test compound were dried and dissolved in phosphate buffer at pH 6.5. Sonication supports optimal re-solubilization. The solutions were then filtered and diluted (3 different dilution levels for each compound) followed by quantification of the dissolved material with Rapid-Fire MS. Quantification was performed for each test compound with a 6-point calibration curve prepared with the same DMSO starting solution.

human ATX = biological target: T1, human ATX (Homo sapiens, UniProt Q13822); assay: Autotaxin inhibition assay (Amplex-Red); type: biochemical; settings: ATX 3 nM, LPC 18:1 30 μM, read-out: hATX IC50
T1 construct: made in house
Method: Plates were sealed and incubated for 5 min. The final assay concentrations were ATX 3 nM, choline oxidase 2 U/ml, horseradish peroxidase 4 U/ml, LPC 18:1 30 μM, Amplex Red 50 μM, and DMSO 2%.

[5] = In vitro microsomal stability, human; type: in vitro ADME; settings: human microsomes, 1 µM; value of 10 = low clearance, essentially below detection limit
Method: as §1

Single dose PK in rats = type: in vivo; settings: rat; for AUC(0-inf) / half-life / clearance / Vd / Cmax / Tmax: plasma; for clearance: read-out: CLp; for Vd: read-out: Vdss
Method: Exposures in animals treated with ATX-inhibitors were determined from K2EDTA treated plasma by LC-MS/MS at different time points. 25 µL of plasma was used for a single concentration determination. Concentration/time profiles were analyzed with MS Excel (Microsoft Corporation, Redmond, WA, United States).
For PK experiments for 7, 13, 14, and 15, respectively, animals were treated either iv or po and exposures were determined at different time points after compound administration. Suitable formulations for 13 were, for example, NMP:Tris buffer pH 8.5 (30%/70%) for iv administration with a nominal drug concentration of 1 mg/ml (dose 2 mg/kg) and a suspension in NMP:gelatine/NaCl (10%/90%) for po administration with a nominal drug concentration of 2.5 mg/ml (dose 10 mg/kg). PK parameters in Table 2 were estimated from the concentration time profiles using Phoenix WinNonlin software (Certara, Princeton, NJ, United States).

[6] = In vitro microsomal stability, mouse; type: in vitro ADME; settings: mouse microsomes, 1 µM; value of 10 = low clearance, essentially below detection limit
Method: as §1

For O=C(COc1ccc(OC(F)(F)F)cc1)N1C[C@@H]2CN(C(=O)c3ccc4[nH]nnc4c3)C[C@H]2C1 [Compound 12, 1-[(3aS,6aS)-5-(1H-Benzotriazole-5-carbonyl)-hexahydro-pyrrolo[3,4-c]pyrrol-2-yl]-2-(4-trifluoromethoxy-phenoxy)-ethanone], the Papp [1] was 1.8 ×10⁻⁶ cm/s, the logD at 12 h [2] was 3.2 and the GSH adducts [3] was “Neg”. For the same compound, the “Mic CL r” value [4] was 10/na/10 µL/m/mg prot, the solubility (HT-solubility assay) was 8 µg/mL (≈ 16.8 µM) and the IC50 (human ATX) was 137 nM. For the same compound, the “Mic CL h” value [5] was 10/na/10 µL/m/mg prot.

For O=C(CCc1ccc(OC(F)(F)F)cc1)N1C[C@@H]2CN(C(=O)c3ccc4[nH]nnc4c3)C[C@H]2C1 [Compound 14, 1-[(3aR,6aR)-5-(1H-benzotriazole-5-carbonyl)-hexahydro-pyrrolo[3,4-c]pyrrol-2-yl]-3-(4-trifluoromethoxy-phenyl)-propan-1-one], the Papp [1] was 2.7 ×10⁻⁶ cm/s, the logD at 12 h [2] was 2.5 and the GSH adducts [3] was “Neg”. For the same compound, the “Mic CL r” value [4] was 40 µL/m/mg prot, the solubility (HT-solubility assay) was 46 µg/mL (≈ 97.2 µM) and the IC50 (human ATX) was 6 nM. For the same compound, the AUC(0-inf) (Single dose PK in rats; iv bolus, 3 mg/kg) was 1070 ng·h/mL, the half-life (Single dose PK in rats; iv bolus, 3 mg/kg) was 78 min and the clearance (Single dose PK in rats; iv bolus, 3 mg/kg) was 47 mL/min/kg. For the same compound, the Vd (Single dose PK in rats; iv bolus, 3 mg/kg) was 0.9 L/kg, the AUC(0-inf) (Single dose PK in rats; oral gavage, 30 mg/kg) was 660 ng·h/mL and the Cmax (Single dose PK in rats; oral gavage, 30 mg/kg) was 130 ng/mL. For the same compound, the Tmax (Single dose PK in rats; oral gavage, 30 mg/kg) was 30 min, the half-life (Single dose PK in rats; oral gavage, 30 mg/kg) was 228 min and the “Oral F” value (Single dose PK in rats; oral gavage, 30 mg/kg) was 6%. For the same compound, the “Mic CL h” value [5] was 10 µL/m/mg prot and the “Mic CL m” value [6] was 27 µL/m/mg prot.

In the case of CS(=O)(=O)c1cc(Cl)cc(COC(=O)N2C[C@@H]3CN(C(=O)c4ccc5[nH]nnc5c4)C[C@H]3C2)c1 [Compound 15, (3aS,6aS)-5-(1H-Benzotriazole-5-carbonyl)-hexahydro-pyrrolo[3,4-c]pyrrole-2-carboxylic acid 3-chloro-5-methanesulfonyl-benzyl ester], the Papp [1] is reported as 0.4 ×10⁻⁶ cm/s, the logD at 12 h [2] is reported as 2 and the GSH adducts [3] is reported as “Neg”. The solubility (HT-solubility assay) was 190 µg/mL (≈ 377 µM), the IC50 (human ATX) was 8 nM and the AUC(0-inf) (Single dose PK in rats; iv bolus, 3 mg/kg) was 321 ng·h/mL. It also gave a half-life (Single dose PK in rats; iv bolus, 3 mg/kg) of 21 min, a clearance (Single dose PK in rats; iv bolus, 3 mg/kg) of 156 mL/min/kg and a Vd (Single dose PK in rats; iv bolus, 3 mg/kg) of 1.7 L/kg. For the same compound, the AUC(0-inf) (Single dose PK in rats; oral gavage, 30 mg/kg) was 30 ng·h/mL, the Cmax (Single dose PK in rats; oral gavage, 30 mg/kg) was 18 ng/mL and the Tmax (Single dose PK in rats; oral gavage, 30 mg/kg) was 15 min. The half-life (Single dose PK in rats; oral gavage, 30 mg/kg) was 114 min, the “Oral F” value (Single dose PK in rats; oral gavage, 30 mg/kg) was 1.1% and the “Mic CL h” value [5] was 10/10/na µL/m/mg prot. For the same compound, the “Mic CL m” value [6] was 10/10/na µL/m/mg prot.

— article PMC8807399, “Synthesis, Characterization, and in vivo Evaluation of a Novel Potent Autotaxin-Inhibitor” (Frontiers in Pharmacology, 2022)
